Molecules are shown by their SMILES.

In the test the target is T1, hMCP-1 receptor, MCP-1 receptor B (CCR2B) (Homo sapiens, UniProt P41597).
T1 construct: expressed in transfected cells; host or cells: CHO-K1 (clone 7, CHO-CCR2B), membrane fragments
T1 sequence (P41597 1-360 isoform P41597-2): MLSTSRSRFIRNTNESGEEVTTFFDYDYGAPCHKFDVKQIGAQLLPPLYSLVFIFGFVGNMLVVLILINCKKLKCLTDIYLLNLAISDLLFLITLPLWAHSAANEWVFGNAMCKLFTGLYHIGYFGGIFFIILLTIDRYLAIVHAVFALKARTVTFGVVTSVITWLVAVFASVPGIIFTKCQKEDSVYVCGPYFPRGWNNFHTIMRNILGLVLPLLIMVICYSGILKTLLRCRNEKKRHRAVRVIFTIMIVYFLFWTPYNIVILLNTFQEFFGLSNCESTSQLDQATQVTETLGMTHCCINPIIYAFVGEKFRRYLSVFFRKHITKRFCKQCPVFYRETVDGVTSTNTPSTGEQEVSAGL
The test is described as follows: hMCP-1 receptor-binding assay. The settings on record: competition with 100 pM 125I-labelled MCP-1, CHO-CCR2B cell membranes, concentration range 0.1-200 μM. An excerpt:
a) hMCP-1 Receptor-binding Assay
The MCP-1 receptor B (CCR2B) cDNA was cloned by PCR from THP-1 cell RNA using suitable oligonucleotide primers based on the published MCP-1 receptor sequences (Charo et al., 1994, Proc. Natl. Acad. Sci. USA, 91, 2752). The resulting PCR products were cloned into vector PCR-II™ (InVitrogen, San Diego, Calif.). Error free CCR2B cDNA was subcloned as a Hind III-Not I fragment into the eukaryotic expression vector pCDNA3 (In Vitrogen) to generate pCDNA3/CC-CKR2A and pCDNA3/CCR2B respectively.
Linearised pCDNA3/CCR2B DNA was transfected into CHO-K1 cells by calcium phosphate precipitation (Wigler et al., 1979, Cell, 16, 777). Transfected cells were selected by the addition of Geneticin Sulphate (G418, Gibco BRL) at 1 mg/ml, 24 hours after the cells had been transfected. Preparation of RNA and Northern blotting were carried out as described previously (Needham et al., 1995, Prot. Express. Purific., 6, 134). CHO-K1 clone 7 (CHO-CCR2B) was identified as the highest MCP-1 receptor B expressor.
CHO-CCR2B cells were grown in DMEM supplemented with 10% foetal calf serum, 2 mM glutamine, 1× Non-Essential Amino Acids, 1× Hypoxanthine and Thymidine Supplement and Penicillin-Streptomycin (at 50 μg streptomycin/mi, Gibco BRL). […]

As usually defined, the IC50 is the concentration that inhibits the measured activity by half. A low value points to inhibition by little substance. Molecule `O=C(O)c1cc2ccccc2n1S(=O)(=O)c1ccc(Cl)c(Cl)c1` [Example 2.01, N-(3,4-Dichlorophenylsulphonyl)indole-2-carboxylic acid] displayed an IC50 of 10 µM.
